Literature values in patent publication US20120184023A1, “Method of Preparing A Glycoside Of A Mono- Or Diacylglycerol Product From A Plant Material” (HYBEN VITAL LICENS APS, priority 2006, published 2012).

Columns and labels:
mononuclear leukocytes = settings: reported in WO 03/043613
[1] = test system: poly-morphonuclear monocytes; settings: reported in WO 03/043613

CC/C=C\C/C=C\C/C=C\CCCCCCCC(=O)OCC(CO[C@@H]1O[C@H](CO)[C@H](O)[C@H](O)[C@H]1O)OC(=O)CCCCCCC/C=C\C/C=C\C/C=C\CC (stereo partly drawn) [GOPO, 3-β-D-galactopyranosyloxy-2-(octadeca-9Z,12Z,15Z-trienoyloxy) propanyloctadeca-9Z,12Z,15Z-trienoate]
chemotaxis of mononuclear leukocytes (mononuclear leukocytes): alleviating
chemiluminescence of poly-morphonuclear monocytes [1]: alleviating chemiluminescence
